Data taken from patent US12660819B2, “Herbicidal derivatives” (SYNGENTA CROP PROTECTION AG, priority 2020, dated 2026).

How the values were obtained:
Format in all cases: in vivo
[1] = test system: Setaria faberi (SETFA); assay: Post-emergence Test (glasshouse, percentage damage to the plant); settings: post-emergence spray, 1000 g/ha unless otherwise stated, evaluated after 13 days
Outline: (§1)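 After sowing in standard soil, pots were kept at 24/16 °C (day/night), 14 h light and 65% humidity. They were sprayed at 1000 g/ha unless otherwise stated, watered twice daily, and assessed for percentage damage at 13 days on a 1–5 scale.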

[2] = test system: Amaranthus retoflexus (AMARE); assay: as above; settings: post-emergence spray, 1000 g/ha unless otherwise stated, evaluated after 13 days
Outline: (§2)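 Spray treatment of sown glasshouse pots at 1000 g/ha (default rate), vehicle acetone/water 50:50 plus 0.5% Tween 20. Read-out: percentage damage after 13 days, converted to a score where 5 denotes 81-100% and 1 denotes 0-20%.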

[3] = test system: Zea mays (ZEAMX); assay: as above; settings: post-emergence spray, 1000 g/ha unless otherwise stated, evaluated after 13 days
Outline: as §1

[4] = test system: Abutilon theophrasti (ABUTH); assay: as above; settings: post-emergence spray, 1000 g/ha unless otherwise stated, evaluated after 13 days
Outline: as §2

[5] = test system: Ipomoea hederacea (IPOHE); assay: as above; settings: post-emergence spray, 1000 g/ha unless otherwise stated, evaluated after 13 days
Outline: as §1

[6] = test system: Echinochloa crus-galli (ECHCG); assay: as above; settings: post-emergence spray, 1000 g/ha unless otherwise stated, evaluated after 13 days
Outline: as §2

[7] = test system: Abutilon theophrasti (ABUTH); assay: Pre-emergence Test (glasshouse, percentage damage to the plant); settings: 1000 g/ha unless otherwise stated, five-point scale
[8] = test system: Echinochloa crus-galli (ECHCG); assay: as above; settings: 1000 g/ha unless otherwise stated, five-point scale
[9] = test system: Amaranthus retoflexus (AMARE); assay: as above; settings: 1000 g/ha unless otherwise stated, five-point scale
[10] = test system: Setaria faberi (SETFA); assay: as above; settings: 1000 g/ha unless otherwise stated, five-point scale
[11] = test system: Zea mays (ZEAMX); assay: as above; settings: 1000 g/ha unless otherwise stated, five-point scale
[12] = test system: Ipomoea hederacea (IPOHE); assay: as above; settings: 1000 g/ha unless otherwise stated, five-point scale

SMILES	Post-emergence Test SETFA, percentage damage to the plant (five-point scale) [1]	Post-emergence Test AMARE, percentage damage to the plant (five-point scale) [2]	Post-emergence Test ZEAMX, percentage damage to the plant (five-point scale) [3]	Post-emergence Test ABUTH, percentage damage to the plant (five-point scale) [4]	Post-emergence Test IPOHE, percentage damage to the plant (five-point scale) [5]	Post-emergence Test ECHCG, percentage damage to the plant (five-point scale) [6]	percentage damage to the plant, ABUTH [7]	percentage damage to the plant, ECHCG [8]	percentage damage to the plant, AMARE [9]	percentage damage to the plant, SETFA [10]	percentage damage to the plant, ZEAMX [11]	percentage damage to the plant, IPOHE [12]
CCn1c(C)c(-c2cccc(C#N)c2)c(=O)c(C(=O)O)c1-c1ccnc(Cl)c1 [Compound 141, 2-(2-chloro-4-pyridyl)-5-(3-cyanophenyl)-1-ethyl-6-methyl-4-oxo-pyridine-3-carboxylic acid]	0	0	0	0	0	0	0	0	0	0	0	0
CCn1c(C)c(-c2ccc(C#N)cc2)c(=O)c(C(=O)O)c1-c1ccnc(Cl)c1 [Compound 142, 2-(2-chloro-4-pyridyl)-5-(4-cyanophenyl)-1-ethyl-6-methyl-4-oxo-pyridine-3-carboxylic acid]	2 (2=21-40%)	0	1 (1=0-20%)	1 (1=0-20%)	2 (2=21-40%)	3 (3=41-60%)	0	1 (1=0-20%)	0	1 (1=0-20%)	0	0
CCn1c(C)c(-c2ccc(Cl)cc2)c(=O)c(C(=O)O)c1-c1ccnc(Cl)c1 [Compound 143, 5-(4-chlorophenyl)-2-(2-chloro-4-pyridyl)-1-ethyl-6-methyl-4-oxo-pyridine-3-carboxylic acid]	4 (4=61-80%)	2 (2=21-40%)	4 (4=61-80%)	4 (4=61-80%)	4 (4=61-80%)	4 (4=61-80%)	3 (3=41-60%)	5 (5=81-100%)	1 (1=0-20%)	5 (5=81-100%)	3 (3=41-60%)	1 (1=0-20%)
CCn1c(C)c(-c2cccc(Cl)c2)c(=O)c(C(=O)O)c1-c1ccnc(Cl)c1 [Compound 144, 5-(3-chlorophenyl)-2-(2-chloro-4-pyridyl)-1-ethyl-6-methyl-4-oxo-pyridine-3-carboxylic acid]	3 (3=41-60%)	2 (2=21-40%)	2 (2=21-40%)	2 (2=21-40%)	2 (2=21-40%)	2 (2=21-40%)	1 (1=0-20%)	4 (4=61-80%)	1 (1=0-20%)	4 (4=61-80%)	2 (2=21-40%)	2 (2=21-40%)
CCn1c(C)c(-c2ccc(C#N)cc2)c(=O)c(C(=O)O)c1-c1ccc(Cl)c(Cl)n1 [Compound 146, 5-(4-cyanophenyl)-2-(5,6-dichloro-2-pyridyl)-1-ethyl-6-methyl-4-oxo-oyridine-3-carboxylic acid]	4 (4=61-80%)	2 (2=21-40%)	3 (3=41-60%)	3 (3=41-60%)	4 (4=61-80%)	4 (4=61-80%)	1 (1=0-20%)	4 (4=61-80%)	1 (1=0-20%)	4 (4=61-80%)	1 (1=0-20%)	0
CCn1c(C)c(-c2cccc(C#N)c2)c(=O)c(C(=O)O)c1-c1ccc(Cl)c(Cl)n1 [Compound 147, 5-(3-cyanophenyl)-2-(5,6-dichloro-2-pyridyl)-1-ethyl-6-methyl-4-oxo-pyridine-3-carboxylic acid]	2 (2=21-40%)	0	2 (2=21-40%)	2 (2=21-40%)	2 (2=21-40%)	2 (2=21-40%)	0	0	0	0	0	0
CCn1c(C)c(-c2cccc(Cl)c2)c(=O)c(C(=O)O)c1-c1ccc(Cl)c(Cl)n1 [Compound 149, 5-(3-chlorophenyl)-2-(5,6-dichloro-2-pyridyl)-1-ethyl-6-methyl-4-oxo-pyridine-3-carboxylic acid]	0	1 (1=0-20%)	1 (1=0-20%)	1 (1=0-20%)	2 (2=21-40%)	0	0	0	0	0	0	0
CCn1c(C)c(-c2cccc(C(F)(F)F)c2)c(=O)c(C(=O)O)c1-c1ccc(Cl)c(Cl)n1 [Compound 150, 2-(5,6-dichloro-2-pyridyl)-1-ethyl-6-methyl-4-oxo-5-[3-(trifluoromethyl)phenyl] pyridine-3-carboxylic acid]	1 (1=0-20%)	0	1 (1=0-20%)	0	2 (2=21-40%)	1 (1=0-20%)	0	0	0	0	1 (1=0-20%)	0
CCn1c(C)c(-c2ccc(C(F)(F)F)cc2)c(=O)c(C(=O)O)c1-c1ccc(Cl)c(Cl)n1 [Compound 151, 2-(5,6-dichloro-2-pyridyl)-1-ethyl-6-methyl-4-oxo-5-[4-(trifluoromethyl)phenyl] pyridine-3-carboxylic acid]	4 (4=61-80%)	0	2 (2=21-40%)	3 (3=41-60%)	3 (3=41-60%)	3 (3=41-60%)	1 (1=0-20%)	4 (4=61-80%)	1 (1=0-20%)	4 (4=61-80%)	2 (2=21-40%)	5 (5=81-100%)
CCOC(=O)c1c(-c2ccc(F)c(F)c2)n(CC)c(C)c(-c2ccc(Cl)cc2)c1=O [Compound 152, ethyl 5-(4-chlorophenyl)-2-(3,4-difluorophenyl)-1-ethyl-6-methyl-4-oxo-pyridine-3-carboxylate]	0	0	0	0	0	0	0	0	0	0	0	0
